Results published in paper PMC8510368, “Secondary Metabolites with Anti-Inflammatory Activities from One Actinobacteria Amycolatopsis taiwanensis” (Molecules, 2021).
Read-outs that look alike come from different tables or passages of the source.

What was measured:
Format in all cases: cell-based, mouse
[1] = tested on: RAW 264.7 cells; test: Cell viability, MTT assay; set-up: concentration or dose not given beside the values
Description: (§1) Mouse macrophage cell line (RAW 264.7) was obtained from Bioresource Collection and Research Center (BCRC 60001) and cultured at 37 °C in Dulbecco’s Modified Eagle’s Medium (DMEM) supplemented with 10% fetal bovine serum (Gibco), 4.5 g/L glucose, 4 mM glutamine, penicillin (100 units/mL), and streptomycin (100 μg/mL) in a humidified atmosphere in a 5% CO2 incubator. The cells were treated with 10, 25, 50 μM natural products in the presence of 1 μg/mL LPS (lipopolysaccharide, Sigma-Aldrich, St. Louis, MO, USA) for 20 h. The concentration of NO in culture supernatants was determined as nitrite, a major stable product of NO, by Griess reagent assay, and cell viabilities were determined using the MTT assay as described previously.

[2] = Cell viability, MTT assay; set-up: concentration or dose not given beside the values; conditions: mouse
Description: as §1

[3] = tested on: iNOS mRNA expression; test: RT-PCR analysis of LPS-induced iNOS mRNA expression; conditions: LPS treatment
[4] = tested on: LPS-activated NO production in RAW 264.7 macrophages; test: Inhibition of LPS-induced NO production (nitrite, Griess reagent assay); conditions: for IC50: Mus musculus, read-out: IC50 NO; for NO inhibition (in words): LPS-induced NO production in RAW 264.7
Description: as §1

[5] = RAW 264.7 macrophage cells, RAW 264.7, MTT assay, read-out: cell viability
[6] = RAW 264.7 macrophage cells, RAW 264.7 macrophages, MTT assay, mean ± SEM, read-out: Cell Viability (% Control)
[7] = RAW264.7, RAW 264.7 macrophages, 1 μg/mL LPS, 20 h, mean ± SEM (n = 4) of 3 independent experiments

Structure (SMILES)	IC50 [4, 7]	viability at 20 h [2, 5]	viability at 20 h [2, 6]	effect on LPS-increased iNOS mRNA expression [3]	NO inhibition (in words) [4]	further results
CC(C)=CCCC1(C)C=Cc2cc(-c3ccc(O)cc3)cc(O)c2O1 (stereo not drawn) [H]					showed inhibitory activities	
CC(C)=CCCC1(C)C=Cc2cc(-c3ccc(O)cc3)cc(O)c2O1 (stereo not drawn) [Compound 8, amycolataiwanensin H]	17.8 ± 1.13 µM	> 80%	95.9 ± 1.32%	inhibited this increase in a concentration-dependent manner		cell viability ([1]; RAW 264.7, MTT assay): > 95%
CC1(C)CCC2C(=CC1=O)CCC1C(C)(C(=O)O)CCCC21C (stereo not drawn) [Compound 6, 12(13→15)abeo-13-oxo-8(14)-abietene-18-oic acid]	24.8 ± 12.9 µM	< 80%	76.3 ± 5.48%			
COc1cc(CCCOC(C)=O)cc(OC)c1O [Compound 7, amycolataiwanensin G]	12.8 ± 4.82 µM	< 80%	56.3 ± 3.91%			
CC(=O)OCC(C)(O)C1CCC(C)C12CC=C(C)CC2 (stereo not drawn) [Compound 2, 12-acetoxy-11-hydroxyacora-3-ene]	34.2 ± 1.97 µM		99.6 ± 5.53%		less effective NO inhibition	
CC1(C)CCc2cc(-c3ccc(O)cc3)cc(O)c2O1 [I]					showed inhibitory activities	
CC(O)c1ccc2c(c1)CCC1[C@](C)(C(=O)O)CCC[C@]21C (stereo partly drawn) [E]					showed inhibitory activities	
CC(C)c1cc2c(c(O)c1O)[C@@]1(C)CCC(=O)C(C)(C)C1[C@@H](O)[C@H]2O (stereo partly drawn) [Compound 3, 6α,7α,11-trihydroxy-3-oxoferrugiol]				inhibited this increase in a concentration-dependent manner	showed inhibitory activities	cell viability ([1]; mouse, 20 h): > 95%; viability at 20 h ([2]; Cell Viability (% Control)): 95.5 ± 3.39%; viability at 20 h ([2]; cell viability): > 80%; IC50 ([4]; RAW264.7, 20 h): 17.5 ± 1.85 µM

Second part, led by results:

IC50 [4, 7]	Structure (SMILES)	viability at 20 h [2, 5]	viability at 20 h [2, 6]	effect on LPS-increased iNOS mRNA expression [3]	NO inhibition (in words) [4]	further results
13.3 ± 0.51 µM	CC1(C)CCc2cc(-c3ccc(O)cc3)cc(O)c2O1 [Compound 9, 6-(4-hydroxyphenyl)-2,2-dimethylchroman-8-ol]	> 80%	98 ± 1.53%	inhibited this increase in a concentration-dependent manner		cell viability ([1]; RAW 264.7, MTT assay): > 95%
12.3 ± 4.97 µM	CC(O)c1ccc2c(c1)CCC1[C@](C)(C(=O)O)CCC[C@]21C (relative stereo) [Compound 5, (1R*,4aS*)-7-(1-hydroxyethyl)-1,4a-dimethyl-1,2,3,4,4a,9,10,10a-octahydrophenanthrene-1-carboxylic acid]	> 80%	82.2 ± 3.21%	inhibited this increase in a concentration-dependent manner		cell viability ([1]; RAW 264.7, MTT assay): > 95%
24.8 ± 1.63 µM	CC(C)C1=C(O)C(=O)C2=C(CCC3C(C)(C)[C@@H](O)CC[C@]23C)C1=O (stereo partly drawn) [Compound 4, amycolataiwanensin D]		91.1 ± 4.22%			
> 100 µM	C[C@@H]1[C@@H](O)CC2C(C)(C)C3CC21CC[C@@]3(C)O (relative stereo) [Compound 10, (2S*,3S*,6R*)-3,6,8,8-tetramethyloctahydro-1H-3a,7-methanoazulene-2,6-diol]		89.5 ± 2.15%			
35.9 ± 2.34 µM	O=c1c(O)c(-c2ccc(O)c(O)c2)oc2cc(O)cc(O)c12 [Quercetin, quercetin, reference compound]		94.1 ± 1.32%			
